# ChEMBL document CHEMBL5620394, “Synthesis of new antiproliferative 1,3,4-substituted-pyrrolo[3,2-c]quinoline derivatives, biological and in silico insights” (Eur J Med Chem, 2023)
# Activity calls are given as the source filed them. The rule behind the calls is not given here.
# Columns and labels:
# MDA-MB-468 = assay: Antiproliferative activity against human MDA-MB-468 cells assessed as cell growth at 10 uM incubated for 48 hrs by sulforhodamine B assay relative to control; assay type: functional; settings: read-out: Activity
# CCRF-CEM = assay: Antiproliferative activity against human CCRF-CEM cells assessed as cell growth at 10 uM incubated for 48 hrs by sulforhodamine B assay relative to control; assay type: functional; settings: read-out: Activity
# EKVX = assay: Antiproliferative activity against human EKVX cells assessed as cell growth at 10 uM incubated for 48 hrs by sulforhodamine B assay relative to control; assay type: functional; settings: read-out: Activity
# NCI-H522 = assay: Antiproliferative activity against human NCI-H522 cells assessed as cell growth at 10 uM incubated for 48 hrs by sulforhodamine B assay relative to control; assay type: functional; settings: read-out: Activity
# IGROV-1 = assay: Antiproliferative activity against human IGROV-1 cells assessed as cell growth at 10 uM incubated for 48 hrs by sulforhodamine B assay relative to control; assay type: functional; settings: read-out: Activity
# SNB-75 = assay: Antiproliferative activity against human SNB-75 cells assessed as cell growth at 10 uM incubated for 48 hrs by sulforhodamine B assay relative to control; assay type: functional; settings: read-out: Activity
# SK-OV-3 = assay: Antiproliferative activity against human SK-OV-3 cells assessed as cell growth at 10 uM incubated for 48 hrs by sulforhodamine B assay relative to control; assay type: functional; settings: read-out: Activity
# HOP-62 = assay: Antiproliferative activity against human HOP-62 cells assessed as cell growth at 10 uM incubated for 48 hrs by sulforhodamine B assay relative to control; assay type: functional; settings: read-out: Activity
# UACC-257 = assay: Antiproliferative activity against human UACC-257 cells assessed as cell growth at 10 uM incubated for 48 hrs by sulforhodamine B assay relative to control; assay type: functional; settings: read-out: Activity
# KM12 = assay: Antiproliferative activity against human KM12 cells assessed as cell growth at 10 uM incubated for 48 hrs by sulforhodamine B assay relative to control; assay type: functional; settings: read-out: Activity
# SF-295 = assay: Antiproliferative activity against human SF-295 cells assessed as cell growth at 10 uM incubated for 48 hrs by sulforhodamine B assay relative to control; assay type: functional; settings: read-out: Activity
# A549 = assay: Antiproliferative activity against human A549 cells assessed as cell growth at 10 uM incubated for 48 hrs by sulforhodamine B assay relative to control; assay type: functional; settings: read-out: Activity
# ACHN = assay: Antiproliferative activity against human ACHN cells assessed as cell growth at 10 uM incubated for 48 hrs by sulforhodamine B assay relative to control; assay type: functional; settings: read-out: Activity
# PC-3 = assay: Antiproliferative activity against human PC-3 cells assessed as cell growth at 10 uM incubated for 48 hrs by sulforhodamine B assay relative to control; assay type: functional; settings: read-out: Activity
# SR = assay: Antiproliferative activity against human SR cells assessed as cell growth at 10 uM incubated for 48 hrs by sulforhodamine B assay relative to control; assay type: functional; settings: read-out: Activity
# MDA-MB-435 = assay: Antiproliferative activity against human MDA-MB-435 cells assessed as cell growth at 10 uM incubated for 48 hrs by sulforhodamine B assay relative to control; assay type: functional; settings: read-out: Activity
# NCI-H226 = assay: Antiproliferative activity against human NCI-H226 cells assessed as cell growth at 10 uM incubated for 48 hrs by sulforhodamine B assay relative to control; assay type: functional; settings: read-out: Activity
# MOLT-4 = assay: Antiproliferative activity against human MOLT-4 cells assessed as cell growth at 10 uM incubated for 48 hrs by sulforhodamine B assay relative to control; assay type: functional; settings: read-out: Activity
# RPMI-8226 = assay: Antiproliferative activity against human RPMI-8226 cells assessed as cell growth at 10 uM incubated for 48 hrs by sulforhodamine B assay relative to control; assay type: functional; settings: read-out: Activity
# HCT-15 = assay: Antiproliferative activity against human HCT-15 cells assessed as cell growth at 10 uM incubated for 48 hrs by sulforhodamine B assay relative to control; assay type: functional; settings: read-out: Activity
# LOX IMVI = assay: Antiproliferative activity against human LOX IMVI cells assessed as cell growth at 10 uM incubated for 48 hrs by sulforhodamine B assay relative to control; assay type: functional; settings: read-out: Activity
# UO-31 = assay: Antiproliferative activity against human UO-31 cells assessed as cell growth at 10 uM incubated for 48 hrs by sulforhodamine B assay relative to control; assay type: functional; settings: read-out: Activity
# MDA-MB-231 = assay: Antiproliferative activity against human MDA-MB-231 cells assessed as cell growth at 10 uM incubated for 48 hrs by sulforhodamine B assay relative to control; assay type: functional; settings: read-out: Activity
# K562 = assay: Antiproliferative activity against human K562 cells assessed as cell growth at 10 uM incubated for 48 hrs by sulforhodamine B assay relative to control; assay type: functional; settings: read-out: Activity
# CAKI-1 = assay: Antiproliferative activity against human CAKI-1 cells assessed as cell growth at 10 uM incubated for 48 hrs by sulforhodamine B assay relative to control; assay type: functional; settings: read-out: Activity
# T47D = assay: Antiproliferative activity against human T47D cells assessed as cell growth at 10 uM incubated for 48 hrs by sulforhodamine B assay relative to control; assay type: functional; settings: read-out: Activity
# HCT-116 = assay: Antiproliferative activity against human HCT-116 cells assessed as cell growth at 10 uM incubated for 48 hrs by sulforhodamine B assay relative to control; assay type: functional; settings: read-out: Activity
# MCF7 [1] = assay: Antiproliferative activity against human MCF7 cells assessed as cell growth at 10 uM incubated for 48 hrs by sulforhodamine B assay relative to control; assay type: functional; settings: read-out: Activity
# UACC-62 = assay: Antiproliferative activity against human UACC-62 cells assessed as cell growth at 10 uM incubated for 48 hrs by sulforhodamine B assay relative to control; assay type: functional; settings: read-out: Activity
# 786-0 = assay: Antiproliferative activity against human 786-0 cells assessed as cell growth at 10 uM incubated for 48 hrs by sulforhodamine B assay relative to control; assay type: functional; settings: read-out: Activity
# HL-60 = assay: Antiproliferative activity against human HL-60 cells assessed as cell growth at 10 uM incubated for 48 hrs by sulforhodamine B assay relative to control; assay type: functional; settings: read-out: Activity
# HT-29 = assay: Antiproliferative activity against human HT-29 cells assessed as cell growth at 10 uM incubated for 48 hrs by sulforhodamine B assay relative to control; assay type: functional; settings: read-out: Activity
# MCF7 [2] = assay: Antiproliferative activity against human MCF7 cells assessed as reduction in cell growth at 10 to 100 uM incubated for 4 hrs by MTS assay; assay type: functional, cell-based; settings: dose 10-100 µM
# LA-N-5 = assay: Antiproliferative activity against human LA-N-5 cells assessed as reduction in cell growth at 10 to 100 uM incubated for 4 hrs by MTS assay; assay type: functional, cell-based; settings: dose 10-100 µM
SMILES,growth at 10 µM (MDA-MB-468),growth at 10 µM (CCRF-CEM),growth at 10 µM (EKVX),growth at 10 µM (NCI-H522),growth at 10 µM (IGROV-1),growth at 10 µM (SNB-75),growth at 10 µM (SK-OV-3),growth at 10 µM (HOP-62),growth at 10 µM (UACC-257),growth at 10 µM (PC-3),growth at 10 µM (SR),growth at 10 µM (NCI-H226),growth at 10 µM (MOLT-4),growth at 10 µM (RPMI-8226),growth at 10 µM (UO-31),growth at 10 µM (MDA-MB-231),growth at 10 µM (K562),growth at 10 µM (CAKI-1),growth at 10 µM (T47D),growth at 10 µM (MCF7 [1]),other results
CC(=O)c1c(C)[nH]c2c1c(-c1cc3c(cc1Br)OCO3)nc1ccccc12,109%,92%,89.6%,77%,82.5%,84%,96.7%,91.5%,105%,85.5%,74%,99.7%,83.8%,96.9%,61.5%,88.2%,85.2%,95.6%,91.4%,70.2%,growth at 10 µM (KM12): 91%; growth at 10 µM (SF-295): 94.2%; growth at 10 µM (A549): 88.7%; growth at 10 µM (ACHN): 93%; growth at 10 µM (MDA-MB-435): 95.6%; growth at 10 µM (HCT-15): 97.2%; growth at 10 µM (LOX IMVI): 89.3%; growth at 10 µM (HCT-116): 98.9%
CCOC(=O)c1c(C)n(-c2ccccc2)c2c1c(-c1ccccc1)nc1ccccc12,,88.8%,,81.2%,,80.4%,,,94.7%,74.5%,89.9%,87%,84.3%,88.1%,80.8%,73.4%,86.4%,91%,95.9%,85.1%,growth at 10 µM (UACC-62): 74.7%; growth at 10 µM (786-0): 86%; growth at 10 µM (HL-60): 89.1%; growth at 10 µM (HT-29): 100%
CC(=O)c1c(C)n(C)c2c1c(-c1ccccc1)nc1ccccc12,,92.7%,,95.6%,,85.8%,,,96.4%,69.8%,94.7%,88.4%,89.4%,79.4%,68.8%,94.3%,102%,87.2%,98.9%,95.6%,Activity (MCF7 [2]): Active; growth at 10 µM (UACC-62): 87.8%; growth at 10 µM (786-0): 101%; growth at 10 µM (HL-60): 76.8%; growth at 10 µM (HT-29): 112%
CC(=O)c1c(C)n(CCCCl)c2c1c(-c1ccc3c(c1)OCO3)nc1ccccc12,101%,77.1%,86%,63.7%,93.9%,69.4%,97.2%,96.7%,102%,76.2%,53.1%,115%,67.3%,83.3%,85.4%,95.8%,71%,86.7%,71.5%,83.2%,growth at 10 µM (KM12): 87.3%; growth at 10 µM (SF-295): 76.7%; growth at 10 µM (A549): 81.7%; growth at 10 µM (ACHN): 84.4%; growth at 10 µM (MDA-MB-435): 93.6%; growth at 10 µM (HCT-15): 87%; growth at 10 µM (LOX IMVI): 90%; growth at 10 µM (HCT-116): 93.6%
CC(=O)c1c(C)n(-c2ccccc2)c2c1c(-c1ccc(C)o1)nc1ccccc12,,74.2%,,71.1%,,93.8%,,,90.8%,69.6%,80.3%,41%,76.7%,70.5%,79.1%,73.3%,71.6%,85.3%,99.7%,88.4%,growth at 10 µM (UACC-62): 85.1%; Activity (LA-N-5): Active; growth at 10 µM (786-0): 93.6%; growth at 10 µM (HL-60): 63.4%; growth at 10 µM (HT-29): 68.4%
CC(=O)c1c(C)[nH]c2c1c(-c1cc(Cl)cc(Cl)c1O)nc1ccccc12,89.7%,58.2%,72.8%,70%,75.6%,72.8%,75.2%,79.9%,118%,71.4%,52.2%,87.4%,51.6%,66.7%,56.8%,72%,74.8%,77.6%,61.9%,74%,growth at 10 µM (KM12): 75.1%; growth at 10 µM (SF-295): 74.1%; growth at 10 µM (A549): 83.5%; growth at 10 µM (ACHN): 71.2%; growth at 10 µM (MDA-MB-435): 85.6%; growth at 10 µM (HCT-15): 73.1%; growth at 10 µM (LOX IMVI): 73.6%; growth at 10 µM (HCT-116): 75.2%
